Results taken from the NIST ThermoML archive (doi:10.1016/j.jct.2007.11.002).

Assay: xn = mol fraction of the nth substance listed
Details: 101 kPa, Liquid; for viscosity: Capillary tube (Ostwald / Ubbelohde) method

CN1CCOCC1 [N-methylmorpholine] + C1CCCCC1
Details	mass density, 298.15 K [kg/m3]	mass density, 303.15 K [kg/m3]	mass density, 313.15 K [kg/m3]	mass density, 323.15 K [kg/m3]	viscosity, 298.15 K [mPa·s]	viscosity, 303.15 K [mPa·s]	viscosity, 313.15 K [mPa·s]	viscosity, 323.15 K [mPa·s]
x2 = 0.0453	907.59	902.83	893.49	874.42	0.868	0.854	0.824	0.802
x2 = 0.1276	895.48	890.66	882.09	863.12	0.85	0.838	0.803	0.778
x2 = 0.1689	889.43	884.59	876.36	857.48	0.84	0.828	0.792	0.764
x2 = 0.2217	881.74	876.96	869.02	850.4	0.83	0.814	0.779	0.75
x2 = 0.2763	873.94	869.13	861.42	843.13	0.824	0.804	0.765	0.732
x2 = 0.3217	867.42	862.66	855.1	837.1	0.821	0.797	0.755	0.718
x2 = 0.3873	857.99	853.23	845.94	828.33	0.819	0.791	0.742	0.701
x2 = 0.4326	851.46	846.82	839.61	822.36	0.819	0.786	0.736	0.691
x2 = 0.4833	844.29	839.67	832.51	815.69	0.821	0.784	0.729	0.681
x2 = 0.5218	838.78	834.2	827.11	810.59	0.824	0.784	0.726	0.673
x2 = 0.5844	829.95	825.42	818.32	802.4	–	0.785	0.721	0.665
x2 = 0.5943	–	–	–	–	0.829	–	–	–
x2 = 0.6328	823.16	818.66	811.52	796.08	–	0.786	0.719	0.659
x2 = 0.6341	–	–	–	–	0.835	–	–	–
x2 = 0.6877	–	–	–	–	0.842	–	–	–
x2 = 0.6911	815.03	810.51	803.31	788.47	–	0.789	0.717	0.653
x2 = 0.7129	–	–	–	–	0.847	–	–	–
x2 = 0.7428	807.87	803.38	796.01	781.8	–	0.79	0.714	0.646
x2 = 0.7648	–	–	–	–	0.855	–	–	–
x2 = 0.7895	–	–	–	–	0.861	–	–	–
x2 = 0.7944	800.77	796.31	788.72	775.2	–	0.794	0.71	0.638
x2 = 0.8392	794.64	790.27	782.38	769.54	–	0.797	0.708	0.631
x2 = 0.8444	–	–	–	–	0.868	–	–	–
x2 = 0.8643	791.35	786.94	778.83	766.42	–	0.797	0.706	0.626
x2 = 0.8873	–	–	–	–	0.875	–	–	–
x2 = 0.9033	786.15	781.75	773.3	761.57	–	0.801	0.704	0.619
x2 = 0.9348	–	–	–	–	0.889	–	–	–
x2 = 0.9532	779.63	775.19	766.22	755.42	–	0.805	0.7	0.611
x2 = 0.9741	–	–	–	–	0.898	–	–	–
x2 = 0.9823	775.75	771.51	762.08	751.98	–	0.805	0.698	0.607

CN1CCOCC1 [N-methylmorpholine] + Cc1ccccc1
Details	mass density, 298.15 K [kg/m3]	mass density, 303.15 K [kg/m3]	mass density, 313.15 K [kg/m3]	mass density, 323.15 K [kg/m3]	viscosity, 298.15 K [mPa·s]	viscosity, 303.15 K [mPa·s]	viscosity, 313.15 K [mPa·s]	viscosity, 323.15 K [mPa·s]
x2 = 0.0457	912.04	907.63	898.17	879.98	0.847	0.839	0.807	0.795
x2 = 0.1167	908.88	904.69	895.22	877.67	0.806	0.798	0.774	0.759
x2 = 0.1822	905.97	901.78	892.37	875.42	0.772	0.765	0.739	0.723
x2 = 0.2455	903.08	898.89	889.47	873.11	0.739	0.732	0.705	0.687
x2 = 0.2843	901.28	897.11	887.68	871.67	0.721	0.712	0.684	0.665
x2 = 0.3211	899.58	895.42	885.99	870.33	0.704	0.692	0.664	0.643
x2 = 0.3862	896.61	892.43	882.99	867.93	0.678	0.664	0.634	0.612
x2 = 0.4327	894.39	890.21	880.77	866.14	0.659	0.645	0.614	0.59
x2 = 0.4841	891.92	887.74	878.29	864.14	0.643	0.627	0.596	0.57
x2 = 0.5512	888.55	884.36	874.87	861.34	0.622	0.606	0.573	0.546
x2 = 0.5943	886.32	882.15	872.61	859.47	0.612	0.594	0.56	0.531
x2 = 0.6341	884.21	880.05	870.53	857.79	0.602	0.586	0.551	0.521
x2 = 0.6877	881.26	877.11	867.65	855.41	0.594	0.575	0.539	0.507
x2 = 0.7129	879.83	875.68	866.2	854.17	0.588	0.571	0.535	0.503
x2 = 0.7648	876.73	872.59	863.14	851.63	0.583	0.561	0.524	0.488
x2 = 0.7895	875.15	871.01	861.57	850.28	0.581	0.559	0.521	0.487
x2 = 0.8444	871.87	867.75	858.32	847.56	0.571	0.549	0.51	0.474
x2 = 0.8873	869.14	865.03	855.6	845.26	0.569	0.543	0.503	0.458
x2 = 0.9348	866.19	862.08	852.67	842.77	0.558	0.536	0.49	0.444
x2 = 0.9741	863.67	859.57	850.02	840.51	0.554	0.527	0.477	0.429
